Laboratory results as given in PubChem BioAssay (NCI).
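1) Cells in 96-well plates. 2) Compound, 48 h, 5 concentrations. 3) Linear interpolation between surrounding doses. 4) Unreached endpoint = highest concentration. GI50: concentration for 50% inhibition of growth. TGI: concentration producing complete growth inhibition.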

Legend:
Assay in all cases: inhibition of tumour cell growth, NCI panel, 48 h; in the data active = GI50 below about 0.43 µM; inactive = the rest
EKVX NSCLC = system: EKVX NSCLC
CAKI-1 renal = system: CAKI-1 renal
HT29 colon = system: HT29 colon
K-562 leukemia = system: K-562 leukemia
SF-539 CNS = system: SF-539 CNS
A498 renal = system: A498 renal
RPMI-8226 leukemia = system: RPMI-8226 leukemia
NCI-H23 lung = system: NCI-H23 lung
DMS 273 small cell lung = system: DMS 273 small cell lung
DLD-1 colon = system: DLD-1 colon

CC(=S)NC1C(Oc2ccc3c(C)cc(=O)oc3c2)OC(CO)C(O)C1O (stereo not drawn)
> 100 µM: TGI (EKVX NSCLC) | TGI (CAKI-1 renal) | TGI (HT29 colon) | TGI (K-562 leukemia) | TGI (SF-539 CNS) | TGI (A498 renal) | TGI (RPMI-8226 leukemia)

COc1cccc(C(=O)C(O)c2cccc(OC)c2OC)c1OC (stereo not drawn)
> 100 µM: TGI (EKVX NSCLC) | TGI (CAKI-1 renal) | TGI (HT29 colon) | TGI (NCI-H23 lung) | TGI (SF-539 CNS) | TGI (A498 renal) | TGI (RPMI-8226 leukemia)

COc1nc(NC2OCC(OC(C)=O)C(OC(C)=O)C2OC(C)=O)c(N=C(C)C(C)=O)c(=O)n1C (stereo not drawn)
> 100 µM: TGI (EKVX NSCLC) | TGI (CAKI-1 renal) | TGI (HT29 colon) | TGI (K-562 leukemia) | TGI (NCI-H23 lung) | TGI (SF-539 CNS) | TGI (A498 renal) | TGI (DMS 273 small cell lung) | TGI (RPMI-8226 leukemia) | TGI (DLD-1 colon)

C[Si](C)(C)C1=C2C(=O)c3ccccc3C(=O)C2=C([Si](C)(C)C)[C@@H]2CCCC[C@H]12
> 100 µM: TGI (EKVX NSCLC) | TGI (CAKI-1 renal) | TGI (K-562 leukemia) | TGI (NCI-H23 lung) | TGI (SF-539 CNS) | TGI (A498 renal) | TGI (RPMI-8226 leukemia)

CCC1OC(=O)C(C)C(OC2CC(C)(O)C(O)C(C)O2)C(C)C(O)C(C)(O)CC(C)C(=O)C(C)C(O)C1C (stereo not drawn)
> 300 µM: TGI (EKVX NSCLC) | TGI (CAKI-1 renal) | TGI (HT29 colon) | TGI (K-562 leukemia) | TGI (NCI-H23 lung) | TGI (SF-539 CNS) | TGI (A498 renal) | TGI (DMS 273 small cell lung) | TGI (RPMI-8226 leukemia) | TGI (DLD-1 colon)

CN1C(=N\S(=O)(=O)c2ccc(Cl)cc2)/C(=N/N=P(c2ccccc2)(c2ccccc2)c2ccccc2)c2ccccc21
> 100 µM: TGI (EKVX NSCLC) | TGI (CAKI-1 renal) | TGI (HT29 colon) | TGI (K-562 leukemia) | TGI (NCI-H23 lung) | TGI (SF-539 CNS) | TGI (A498 renal) | TGI (DMS 273 small cell lung) | TGI (DLD-1 colon)

Cc1cccc2ns[s+]c12
81.4 µM: TGI (K-562 leukemia)
> 100 µM: TGI (EKVX NSCLC) | TGI (CAKI-1 renal) | TGI (HT29 colon) | TGI (NCI-H23 lung) | TGI (SF-539 CNS) | TGI (A498 renal) | TGI (DMS 273 small cell lung) | TGI (RPMI-8226 leukemia) | TGI (DLD-1 colon)

O=C(Cl)c1cc([N+](=O)[O-])cc([N+](=O)[O-])c1
> 100 µM: TGI (EKVX NSCLC) | TGI (CAKI-1 renal) | TGI (HT29 colon) | TGI (K-562 leukemia) | TGI (NCI-H23 lung) | TGI (SF-539 CNS) | TGI (DMS 273 small cell lung) | TGI (RPMI-8226 leukemia) | TGI (DLD-1 colon)

CN(C)CCCn1c2c(c3ccncc3c1=O)C(=O)c1ccccc1-2
5.53 µM: TGI (CAKI-1 renal)
inactive: GI50 (EKVX NSCLC) 7.91 µM | GI50 (CAKI-1 renal) 0.572 µM | GI50 (HT29 colon) 0.484 µM | GI50 (K-562 leukemia) 0.573 µM | GI50 (NCI-H23 lung) 1.08 µM | GI50 (SF-539 CNS) 0.714 µM | GI50 (A498 renal) 2.15 µM | GI50 (RPMI-8226 leukemia) 1.72 µM
12.3 µM: TGI (K-562 leukemia)
7.62 µM: TGI (RPMI-8226 leukemia)
9.63 µM: TGI (NCI-H23 lung)
5.95 µM: TGI (SF-539 CNS)
48.3 µM: TGI (EKVX NSCLC)
13.1 µM: TGI (HT29 colon)
20 µM: TGI (A498 renal)

CN(C)CCCN1c2ccc3ccccc3c2Sc2cccc(Cl)c21
35.4 µM: TGI (NCI-H23 lung)
16.6 µM: TGI (CAKI-1 renal)
3.77 µM: TGI (K-562 leukemia)
20.7 µM: TGI (SF-539 CNS)
4.56 µM: TGI (HT29 colon)
3.85 µM: TGI (RPMI-8226 leukemia)
25.8 µM: TGI (A498 renal)
13.5 µM: TGI (EKVX NSCLC)

O=C(CCc1nnc2s/c(=C\c3ccc(Cl)cc3Cl)c(=O)n12)Nc1cc(Cl)c(Cl)cc1Cl
inactive: GI50 (EKVX NSCLC) > 100 µM | GI50 (CAKI-1 renal) > 100 µM | GI50 (HT29 colon) > 100 µM | GI50 (K-562 leukemia) > 100 µM | GI50 (NCI-H23 lung) > 100 µM | GI50 (SF-539 CNS) > 100 µM | GI50 (A498 renal) > 100 µM | GI50 (DMS 273 small cell lung) > 100 µM | GI50 (RPMI-8226 leukemia) > 100 µM | GI50 (DLD-1 colon) > 100 µM
> 100 µM: TGI (EKVX NSCLC) | TGI (CAKI-1 renal) | TGI (HT29 colon) | TGI (K-562 leukemia) | TGI (NCI-H23 lung) | TGI (SF-539 CNS) | TGI (A498 renal) | TGI (DMS 273 small cell lung) | TGI (RPMI-8226 leukemia) | TGI (DLD-1 colon)
